Laboratory results as given in patent publication US20240174727A1, “LONG-ACTING NATRIURETIC PEPTIDES AND USES THEREOF” (Eli Lilly and Company, priority 2022, published 2024).
Read-outs that look alike come from different tables or passages of the source. Numbered stars: 1 amine (or outer) side, 2 acyl side, 3 side chain; on linkers, the order of the positions; unused ones are H or OH. Bridge positions count the residues as written; N and C are the ends. Square brackets hold non-standard residues; d marks the D form. Peptide text beside a SMILES is read from it. * marks the point of attachment. PEG24 = NCCOCCOCCOCCOCCOCCOCCOCCOCCOCCOCCOCCOCCOCCOCCOCCOCCOCCOCCOCCOCCOCCOCCOCCOCCC(=O)O; C20 diacid = O=C(O)CCCCCCCCCCCCCCCCCCC(=O)*; γGlu = O=C(O)[C@H](CCC(=O)[*:2])N[*:1]; 4Pal = N[C@@H](Cc1ccncc1)C(=O)O; Dap = NC[C@H](N)C(=O)O; CH2 = C([*:1])[*:2]; βAla = NCCC(=O)O

Target: T1, human NPRA (Homo sapiens, UniProt P16066)
T1 construct: Full-Length cDNA Cloning and Generation of Cell Lines Overexpressing Natriuretic Peptide Receptors (NPRs); expressed in transfected cells; host or cells: Jump-in T-Rex HEK293 cells, pJTI R4 CMV-TO MCS pA vector, tetracycline induction
T1 sequence (P16066 33-1061): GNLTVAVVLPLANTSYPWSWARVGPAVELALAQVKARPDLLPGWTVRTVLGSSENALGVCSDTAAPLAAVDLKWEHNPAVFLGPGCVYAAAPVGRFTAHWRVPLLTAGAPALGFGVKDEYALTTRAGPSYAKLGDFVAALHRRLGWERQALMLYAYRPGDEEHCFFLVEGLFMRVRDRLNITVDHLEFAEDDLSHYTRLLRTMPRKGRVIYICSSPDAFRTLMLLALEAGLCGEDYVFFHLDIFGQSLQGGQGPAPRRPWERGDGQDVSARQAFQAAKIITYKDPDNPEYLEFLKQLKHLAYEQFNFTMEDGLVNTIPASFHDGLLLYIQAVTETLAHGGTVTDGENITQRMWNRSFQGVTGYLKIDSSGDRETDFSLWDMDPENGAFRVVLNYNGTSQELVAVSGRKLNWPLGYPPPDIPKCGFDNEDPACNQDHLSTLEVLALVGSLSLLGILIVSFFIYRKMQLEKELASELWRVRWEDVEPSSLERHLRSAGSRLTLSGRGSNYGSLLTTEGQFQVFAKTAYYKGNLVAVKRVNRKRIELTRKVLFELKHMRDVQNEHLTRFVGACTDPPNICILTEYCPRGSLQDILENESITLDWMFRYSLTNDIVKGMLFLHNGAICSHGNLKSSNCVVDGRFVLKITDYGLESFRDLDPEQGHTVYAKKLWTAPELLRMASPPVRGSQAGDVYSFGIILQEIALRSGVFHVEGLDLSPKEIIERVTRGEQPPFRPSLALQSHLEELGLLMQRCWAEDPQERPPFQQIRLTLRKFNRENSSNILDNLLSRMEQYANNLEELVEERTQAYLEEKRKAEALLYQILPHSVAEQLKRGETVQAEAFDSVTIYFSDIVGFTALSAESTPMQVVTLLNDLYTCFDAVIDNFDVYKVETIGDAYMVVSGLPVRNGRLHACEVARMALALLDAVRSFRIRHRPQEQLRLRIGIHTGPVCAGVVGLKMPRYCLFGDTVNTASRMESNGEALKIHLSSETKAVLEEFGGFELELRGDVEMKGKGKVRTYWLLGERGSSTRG
Experiment: Human NPRA cGMP activity assay (HTRF) in HEK293 cells overexpressing NPRA
Type: cell-based
In short: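 cGMP measured by HTRF and scaled between buffer (minimum) and 100 nM amidated rat ANP (maximum). Polypeptides in 10-fold steps from 10 μM to 1 pM, 0.5% DMSO, 0.5 mM IBMX, 40 min at room temperature, on induced NPRA-overexpressing HEK293 cells.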

[1] = assay buffer with 0.1% BSA, read-out: cGMP Assay (EC50, pM) w/BSA hNPRA
[2] = assay buffer with 0.1% casein, read-out: cGMP Assay (EC50, pM) w/Casein hNPRA
[3] = cGMP Assay (EC50, pM) w/Casein hNPRA, assay buffer with 0.1% casein
[4] = cGMP Assay (EC50, pM) w/BSA hNPRA, assay buffer with 0.1% BSA

Compound | EC50 [1] [pM] | EC50 [2] [pM] | EC50 [3] [pM] | EC50 [4] [pM]
CC[C@H](C)[C@@H]1NC(=O)[C@H](CCCNC(=N)N)NC(=O)[C@H](CC(=O)O)NC(=O)[C@H]([C@@H](C)CC)NC(=O)[C@H](CCCNC(=N)N)NC(=O)[C@H](CCCCN)NC(=O)CNC(=O)[C@H](Cc2ccccc2)NC(=O)[C@@H](NC(=O)[C@H](CO)NC(=O)[C@H](CO)NC(=O)[C@H](CCCNC(=N)N)NC(=O)CCNC(=O)[C@H](CCCCN)NC(=O)[C@H](CCC(=O)O)NC(=O)CCOCCOCCOCCOCCOCCOCCOCCOCCOCCOCCOCCOCCOCCOCCOCCOCCOCCOCCOCCOCCOCCOCCOCCOCCNC(=O)CNC(=O)[C@H](CCCCN)NC(=O)[C@H](CCC(=O)O)NC(=O)[C@H](CCCCN)NC(=O)[C@H](CCC(=O)O)NC(=O)[C@H](CCCCN)NC(=O)[C@H](CCC(=O)O)NC(=O)CC[C@H](NC(=O)CCCCCCCCCCCCCCCCCCC(=O)O)C(=O)O)CSCSC[C@@H](C(=O)N2CCC[C@H]2C(=O)N[C@@H](CO)C(=O)N[C@@H](Cc2ccccc2)C(=O)N[C@@H](CCCNC(=N)N)C(=O)N[C@@H](Cc2c[nH]cn2)C(=O)NCC(=O)NCC(=O)N2CCC[C@H]2C(N)=O)NC(=O)CNC(=O)[C@H](CC(C)C)NC(=O)CNC(=O)[C@H](CO)NC(=O)[C@H](CCC(N)=O)NC(=O)[C@H](Cc2c[nH]cn2)NC(=O)CNC1=O [Example 130] ({C20 diacid-γGlu}-EKEKEKG[PEG24]EK[βAla]RSSCFGKRIDRIGHQSGLGCPSFRHGGP-NH2; linker 15-31 via CH2) | 1270 | 669 |  | 
CC[C@H](C)[C@@H]1NC(=O)[C@H](CCCNC(=N)N)NC(=O)[C@H](CC(=O)O)NC(=O)[C@H]([C@@H](C)CC)NC(=O)[C@H](CCCNC(=N)N)NC(=O)CNC(=O)CNC(=O)[C@H](Cc2ccccc2)NC(=O)[C@@H](NC(=O)[C@H](CO)NC(=O)[C@H](CO)NC(=O)[C@H](CCCNC(=N)N)NC(=O)[C@H](CCCNC(=N)N)NC(=O)[C@H](Cc2ccncc2)NC(=O)[C@H](CO)NC(=O)COCCOCCNC(=O)COCCOCCNC(=O)COCCOCCNC(=O)COCCOCCNC(=O)COCCOCCNC(=O)COCCOCCNC(=O)CNC(=O)[C@H](CCCCN)NC(=O)[C@H](CCC(=O)O)NC(=O)[C@H](CCCCN)NC(=O)[C@H](CCC(=O)O)NC(=O)[C@H](CCCCN)NC(=O)[C@H](CCC(=O)O)NC(=O)CC[C@H](NC(=O)CCCCCCCCCCCCCCCCCCC(=O)O)C(=O)O)CSCSC[C@@H](C(=O)N2CCC[C@H]2C(=O)N[C@@H](CO)C(=O)N[C@@H](Cc2ccccc2)C(=O)N[C@@H](CCCNC(=N)N)C(=O)N[C@@H](Cc2c[nH]cn2)C(=O)NCC(=O)NCC(=O)N[C@@H](CCCCN)C(=O)N[C@@H](CO)C(=O)N[C@@H](CO)C(=O)NCC(=O)N[C@@H](C)C(=O)N2CCC[C@H]2C(=O)N2CCC[C@H]2C(=O)N2CCC[C@H]2C(=O)N[C@@H](CO)C(N)=O)NC(=O)CNC(=O)[C@H](CC(C)C)NC(=O)CNC(=O)[C@H](CO)NC(=O)[C@H](CCC(N)=O)NC(=O)[C@H](Cc2c[nH]cn2)NC(=O)CNC1=O [Example 86] | 25200 | 1020 |  | 
{C20 diacid-γGlu}-EKEKEKG[PEG24]S[4Pal]RRSSCFGGRIDRIGHQSGLGCPSFRHGGPSSGAPPPS-NH2 (linker 15-31 via CH2) [Example 61] |  |  | 912 | 
CC[C@H](C)[C@@H]1NC(=O)[C@H](CCCNC(=N)N)NC(=O)[C@H](CC(=O)O)NC(=O)[C@H]([C@@H](C)CC)NC(=O)[C@H](CCCNC(=N)N)NC(=O)CNC(=O)CNC(=O)[C@H](Cc2ccccc2)NC(=O)[C@@H](NC(=O)[C@H](CO)NC(=O)[C@H](CO)NC(=O)[C@H](CCCNC(=N)N)NC(=O)CCNC(=O)[C@H](CCC(=O)O)NC(=O)[C@H](CCCCN)NC(=O)CNC(=O)[C@H](CCCCN)NC(=O)[C@H](CCC(=O)O)NC(=O)[C@H](CCCCN)NC(=O)[C@H](CCC(=O)O)NC(=O)[C@H](CCCCN)NC(=O)[C@H](CCC(=O)O)NC(=O)CC[C@H](NC(=O)CCCCCCCCCCCCCCCCCCC(=O)O)C(=O)O)CSCSC[C@@H](C(=O)N2CCC[C@H]2C(=O)N[C@@H](CO)C(=O)N[C@@H](Cc2ccccc2)C(=O)N[C@@H](CCCNC(=N)N)C(=O)N[C@@H](Cc2c[nH]cn2)C(=O)NCC(=O)NCC(=O)N2CCC[C@H]2C(=O)N[C@@H](CO)C(=O)N[C@@H](CO)C(=O)NCC(=O)N[C@@H](C)C(=O)N2CCC[C@H]2C(=O)N2CCC[C@H]2C(=O)N2CCC[C@H]2C(=O)N[C@@H](CO)C(N)=O)NC(=O)CNC(=O)[C@H](CC(C)C)NC(=O)CNC(=O)[C@H](CO)NC(=O)[C@H](Cc2ccc(O)cc2)NC(=O)[C@H](Cc2c[nH]cn2)NC(=O)CNC1=O [Example 58] |  |  | 1220 | 104000
{C20 diacid-γGlu}-EKEKEKGEKPRSSCFG[Dap]RIDRIGHQSGLGCPSFRHGSPSSGAPPPS-NH2 (linker 14-30 via CH2) [Example 137] | 155000 | 769 |  | 
CC[C@H](C)[C@@H]1NC(=O)[C@H](CCCNC(=N)N)NC(=O)[C@H](CC(=O)O)NC(=O)[C@H]([C@@H](C)CC)NC(=O)[C@H](CCCNC(=N)N)NC(=O)CNC(=O)CNC(=O)[C@H](Cc2ccccc2)NC(=O)[C@@H](NC(=O)[C@H](CO)NC(=O)[C@H](CO)NC(=O)[C@H](CCCNC(=N)N)NC(=O)CCNC(=O)[C@H](CCCCN)NC(=O)[C@H](CCC(=O)O)NC(=O)CNC(=O)[C@H](CCCCN)NC(=O)[C@H](CCC(=O)O)NC(=O)[C@H](CCCCN)NC(=O)[C@H](CCC(=O)O)NC(=O)[C@H](CCCCN)NC(=O)[C@H](CCC(=O)O)NC(=O)CC[C@H](NC(=O)CCCCCCCCCCCCCCCCCCC(=O)O)C(=O)O)CSCSC[C@@H](C(=O)N2CCC[C@H]2C(=O)N[C@@H](CO)C(=O)N[C@@H](Cc2ccccc2)C(=O)N[C@@H](CCCNC(=N)N)C(=O)N[C@@H](Cc2c[nH]cn2)C(=O)NCC(=O)NCC(=O)N2CCC[C@H]2C(=O)N[C@@H](CO)C(=O)N[C@@H](CO)C(=O)NCC(=O)N[C@@H](C)C(=O)N2CCC[C@H]2C(=O)N2CCC[C@H]2C(=O)N2CCC[C@H]2C(=O)N[C@@H](CO)C(N)=O)NC(=O)CNC(=O)[C@H](CC(C)C)NC(=O)CNC(=O)[C@H](CO)NC(=O)[C@H](Cc2ccc(O)cc2)NC(=O)[C@H](Cc2c[nH]cn2)NC(=O)CNC1=O [Example 56] |  |  |  | 145000
{C20 diacid-γGlu}-EKEKEKGEKPRSSCFG[Dap]RIDRIGHYSGLGCPSFRHGSPSSGAPPPS-NH2 (linker 14-30 via CH2) [Example 136] | 100000 | 1380 |  | 
